The record followed here is ChEMBL document CHEMBL5154682, “TDP-43 Modulation by Tau-Tubulin Kinase 1 Inhibitors: A New Avenue for Future Amyotrophic Lateral Sclerosis Therapy” (J Med Chem, 2022).

Active and inactive are the calls of the source. No cut-off for these calls is given here.

The nature of series [1]: Selectivity index, ratio of IC50 for recombinant human TTBK1 to IC50 for recombinant human TTBK2.
Series [2] is described as follows: Permeability of the compound at pH 7.4 PBS/EtOH buffer (70:30) by PAMPA-BBB assay.
Series [3] deals with T1, Tau-tubulin kinase 1 (Homo sapiens, UniProt Q5TCY1).
T1 sequence (Q5TCY1 whole entry): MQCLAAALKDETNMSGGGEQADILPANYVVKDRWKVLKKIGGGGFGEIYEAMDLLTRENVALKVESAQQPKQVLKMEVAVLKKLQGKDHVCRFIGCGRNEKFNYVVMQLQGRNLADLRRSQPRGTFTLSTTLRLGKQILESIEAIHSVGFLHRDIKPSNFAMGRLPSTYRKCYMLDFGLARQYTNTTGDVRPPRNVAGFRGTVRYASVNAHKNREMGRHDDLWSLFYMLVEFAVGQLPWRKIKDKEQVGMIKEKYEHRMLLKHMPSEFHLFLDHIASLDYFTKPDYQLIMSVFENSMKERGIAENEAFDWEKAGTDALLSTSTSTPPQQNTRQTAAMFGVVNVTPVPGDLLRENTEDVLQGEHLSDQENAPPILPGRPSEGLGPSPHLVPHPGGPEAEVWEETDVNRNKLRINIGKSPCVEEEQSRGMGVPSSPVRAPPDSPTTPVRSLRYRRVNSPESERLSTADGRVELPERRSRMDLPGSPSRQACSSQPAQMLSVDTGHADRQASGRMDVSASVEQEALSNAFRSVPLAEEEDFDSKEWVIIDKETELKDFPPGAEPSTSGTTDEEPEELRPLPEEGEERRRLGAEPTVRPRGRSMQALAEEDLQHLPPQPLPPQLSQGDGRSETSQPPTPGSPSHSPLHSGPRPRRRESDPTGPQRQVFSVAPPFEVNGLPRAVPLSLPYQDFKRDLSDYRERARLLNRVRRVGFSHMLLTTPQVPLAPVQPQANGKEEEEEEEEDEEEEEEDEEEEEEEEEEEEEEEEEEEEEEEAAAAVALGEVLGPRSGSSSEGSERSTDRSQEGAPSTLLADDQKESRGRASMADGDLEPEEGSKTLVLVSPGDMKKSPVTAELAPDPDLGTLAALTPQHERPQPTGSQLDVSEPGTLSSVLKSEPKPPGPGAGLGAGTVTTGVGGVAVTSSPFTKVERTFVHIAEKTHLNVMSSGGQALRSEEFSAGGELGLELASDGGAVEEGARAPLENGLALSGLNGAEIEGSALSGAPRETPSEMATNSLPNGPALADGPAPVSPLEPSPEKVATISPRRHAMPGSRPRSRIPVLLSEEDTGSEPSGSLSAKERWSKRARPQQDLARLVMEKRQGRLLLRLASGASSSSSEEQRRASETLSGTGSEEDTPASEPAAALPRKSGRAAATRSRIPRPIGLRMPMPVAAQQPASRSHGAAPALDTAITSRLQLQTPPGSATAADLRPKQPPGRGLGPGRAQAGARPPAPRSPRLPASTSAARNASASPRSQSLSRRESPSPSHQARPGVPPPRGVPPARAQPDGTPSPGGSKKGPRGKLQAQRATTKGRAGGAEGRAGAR
Series [4] has as its target T2, Tau-tubulin kinase 2 (Homo sapiens, UniProt Q6IQ55).
The next series deals with SH-SY5Y. The series is described as follows: Neuroprotective activity against okadaic acid-induced neurotoxicity in human SH-SY5Y cells assessed as reduction in Tau hyperphosphorylation by measuring cell viability at 1 to 5 uM incubated for 24 hrs by MTT assay. It counts as functional, cell-based. The conditions noted are these: dose 1-5 µM.
Series [5] deals with T1, Tau-tubulin kinase 1. The conditions noted are these: dose 10.0 µM, time 30.0 min.
In series [6] the target is T2, Tau-tubulin kinase 2. The conditions noted are these: dose 10.0 µM, time 30.0 min.

T2 sequence (Q6IQ55 whole entry): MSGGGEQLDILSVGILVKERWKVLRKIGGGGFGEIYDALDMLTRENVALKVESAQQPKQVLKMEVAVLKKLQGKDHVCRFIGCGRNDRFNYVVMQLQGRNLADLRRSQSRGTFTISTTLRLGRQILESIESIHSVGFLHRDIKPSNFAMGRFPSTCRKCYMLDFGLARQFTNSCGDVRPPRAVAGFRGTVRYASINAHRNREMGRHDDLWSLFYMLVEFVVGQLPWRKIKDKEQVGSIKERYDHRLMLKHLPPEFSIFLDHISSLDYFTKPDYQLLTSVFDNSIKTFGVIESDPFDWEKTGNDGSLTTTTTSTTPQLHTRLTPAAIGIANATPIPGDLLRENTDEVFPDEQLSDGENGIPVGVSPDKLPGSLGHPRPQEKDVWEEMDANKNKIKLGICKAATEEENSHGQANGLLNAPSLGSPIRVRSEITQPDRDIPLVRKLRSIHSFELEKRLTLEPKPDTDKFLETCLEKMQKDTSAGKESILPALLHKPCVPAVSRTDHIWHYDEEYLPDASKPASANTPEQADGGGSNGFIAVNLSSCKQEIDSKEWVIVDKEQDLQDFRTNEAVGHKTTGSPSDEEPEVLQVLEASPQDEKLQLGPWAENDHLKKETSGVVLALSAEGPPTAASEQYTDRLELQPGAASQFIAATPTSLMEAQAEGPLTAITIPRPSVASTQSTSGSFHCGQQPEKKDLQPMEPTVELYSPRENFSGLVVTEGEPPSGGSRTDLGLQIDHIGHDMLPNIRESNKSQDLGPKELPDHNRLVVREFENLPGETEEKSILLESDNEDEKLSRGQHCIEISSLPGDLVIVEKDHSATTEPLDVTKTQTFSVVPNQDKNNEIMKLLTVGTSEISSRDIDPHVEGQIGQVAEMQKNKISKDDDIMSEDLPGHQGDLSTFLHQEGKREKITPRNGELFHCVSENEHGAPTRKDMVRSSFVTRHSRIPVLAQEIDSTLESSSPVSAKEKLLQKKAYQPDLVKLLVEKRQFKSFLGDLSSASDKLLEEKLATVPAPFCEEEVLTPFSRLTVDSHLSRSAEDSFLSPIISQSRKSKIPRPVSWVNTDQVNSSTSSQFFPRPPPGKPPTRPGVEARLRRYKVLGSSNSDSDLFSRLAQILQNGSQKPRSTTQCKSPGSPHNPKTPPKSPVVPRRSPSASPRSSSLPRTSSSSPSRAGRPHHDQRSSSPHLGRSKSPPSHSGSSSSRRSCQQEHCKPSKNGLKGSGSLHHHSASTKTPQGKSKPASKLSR

Regarding `COc1ccc(Nc2ncnc3[nH]ccc23)cc1`, the Selectivity Index in series [1] came out at 0.39. For the same molecule, the permeability entry in series [2] was “Impermeable”. Besides, the concentration for half-maximal inhibition (IC50) was 0.52 µM at Tau-tubulin kinase 1 [3] and 1.32 µM against Tau-tubulin kinase 2 [4].

Consider `Cn1c(=O)c2c(ncn2C)n(C)c1=O` [CAFFEINE], for which the permeability result in series [2] is given as “Permeable”.

Regarding `CC(C)Oc1ccc(Nc2ncnc3[nH]ccc23)cc1`, the Selectivity Index in series [1] turned out to be 0.17. The permeability result in series [2] is given as “Permeable”. Besides, the result in the series on SH-SY5Y was Active. Besides, the IC50 on Tau-tubulin kinase 1 [3] was 1.5 µM; against Tau-tubulin kinase 2 [4], 8.4 µM.

Take `CCOc1ccc(Nc2ncnc3[nH]ccc23)cc1`: the Selectivity Index in series [1] was 0.16. For the same molecule, the permeability result in series [2] is on record as “Impermeable”. In addition, in the series on SH-SY5Y, the outcome was Active. In addition, the figures for the half-maximal inhibitory concentration (IC50) at Tau-tubulin kinase 1 [3] and against Tau-tubulin kinase 2 [4] were 2.3 µM and 13.7 µM, respectively.

Take `CC(=O)c1ccc(Nc2ncnc3[nH]ccc23)cc1`: the Selectivity Index in series [1] was determined as 0.46. Also, the IC50 on Tau-tubulin kinase 1 [3] is 4.3 µM; on Tau-tubulin kinase 2 [4], 9.3 µM.

On to `O=C(c1ccc(Nc2ncnc3[nH]ccc23)cc1)c1ccc(Cl)c(Cl)c1`, for which the inhibition on Tau-tubulin kinase 1 [5] was found to be 9%.

On to `Nc1nc(Nc2ccc(Oc3cccc(Cl)c3)cc2)c2cc[nH]c2n1`, for which the Selectivity Index in series [1] turned out to be 0.12. Further, the permeability entry in series [2] is “Permeable”.

Consider `CCn1cc(C(=O)O)c(=O)c2cc(F)c(N3CCNCC3)nc21` [ENOXACIN], for which, in series [2], the permeability entry is on record as “Permeable”.

For the molecule `CN1C(C(=O)Nc2ccccn2)=C(O)c2ccccc2S1(=O)=O` [PIROXICAM], the permeability result in series [2] is recorded as “Permeable”.

With `Nc1nc(Nc2ccc(Oc3ccc(Cl)cc3)cc2)c2cc[nH]c2n1`, the permeability result in series [2] was “Permeable”.

`Clc1ccc(Nc2ncnc3[nH]ncc23)cc1`: the values for the inhibition at Tau-tubulin kinase 1 [5] and against Tau-tubulin kinase 2 [6] were 8% and 1%, respectively.

As for `c1ccc(Nc2ncnc3[nH]ccc23)cc1`, the Selectivity Index in series [1] was 0.47. Besides, the permeability entry in series [2] was “Permeable”. For the same molecule, the IC50 came to 0.79 µM against Tau-tubulin kinase 1 [3] and 1.68 µM on Tau-tubulin kinase 2 [4].

As for `Cc1ccc(Cn2cc(COc3ccc(Nc4ncnc5[nH]ccc45)cc3)nn2)cc1`, in series [1], the Selectivity Index came out at 0.57. In addition, in series [2], the permeability entry is “Impermeable”. Besides, the half-maximal inhibitory concentration (IC50) came out at 0.99 µM against Tau-tubulin kinase 1 [3] and 1.75 µM on Tau-tubulin kinase 2 [4].

Regarding `Oc1ccc(Nc2ncnc3[nH]ccc23)cc1`, the Selectivity Index in series [1] stood at 0.45. For the same molecule, the results for the IC50 on Tau-tubulin kinase 1 [3] and on Tau-tubulin kinase 2 [4] were 3 µM and 7.4 µM, respectively.

With `Oc1ccccc1Nc1ncnc2[nH]ccc12`, the inhibition was found to be 14% against Tau-tubulin kinase 1 [5] and 1% on Tau-tubulin kinase 2 [6].

`c1ccc(Nc2ncnc3sccc23)cc1` yielded an inhibition on Tau-tubulin kinase 1 [5] of 17%.

Take `Oc1ccc(CNc2ncnc3[nH]ccc23)cc1`: the inhibition came out at 23% against Tau-tubulin kinase 1 [5] and 10% against Tau-tubulin kinase 2 [6].

For `c1ccc(CCn2cc(COc3ccc(Nc4ncnc5[nH]ccc45)cc3)nn2)cc1`, in series [1], the Selectivity Index is 0.15. Moreover, the permeability result in series [2] is given as “Impermeable”. Besides, the IC50 against Tau-tubulin kinase 1 [3] was found to be 0.39 µM; against Tau-tubulin kinase 2 [4] it was 2.61 µM.

Regarding `CNCCCN1c2ccccc2CCc2ccccc21` [DESIPRAMINE], the permeability entry in series [2] was “Permeable”.

Turning to `O=C(c1ccc(F)cc1)c1ccc(Nc2ncnc3[nH]ccc23)cc1`, the permeability entry in series [2] is on record as “Permeable”.

Regarding `Clc1ccccc1Cn1cc(COc2ccc(Nc3ncnc4[nH]ccc34)cc2)nn1`, in series [1], the Selectivity Index amounted to 0.13. Moreover, the permeability entry in series [2] is recorded as “Impermeable”. Besides, the concentration for half-maximal inhibition (IC50) on Tau-tubulin kinase 1 [3] came to 0.36 µM; on Tau-tubulin kinase 2 [4], 2.75 µM.

Regarding `COc1cccc(Oc2ccc(Nc3ncnc4[nH]ccc34)cc2)c1`, in series [2], the permeability result is on record as “Permeable”. For the same molecule, the outcome in the series on SH-SY5Y was Active.

Turning to `c1nc(Nc2ccc(N3CCOCC3)cc2)c2cn[nH]c2n1`, the values for the inhibition against Tau-tubulin kinase 1 [5] and against Tau-tubulin kinase 2 [6] were 25% and 12%, respectively.

For the molecule `c1ccc(Oc2ccc(Nc3ncnc4[nH]ccc34)cc2)cc1`, in series [2], the permeability entry is given as “Permeable”.

For `COC(=O)c1cc(Nc2ncnc3[nH]ccc23)ccc1Br`, the IC50 is 2.2 µM at Tau-tubulin kinase 1 [3] and 4.2 µM against Tau-tubulin kinase 2 [4].

Take `Clc1ccccc1Nc1ncnc2[nH]ccc12`: in series [1], the Selectivity Index came to 0.51. Further, the IC50 on Tau-tubulin kinase 1 [3] came out at 21.8 µM; on Tau-tubulin kinase 2 [4] it was 42.1 µM.

As for `Clc1ccccc1Oc1ccc(Nc2ncnc3[nH]ccc23)cc1`, the permeability result in series [2] is listed as “Permeable”.

As to `c1ccc(COc2ccc(Nc3ncnc4[nH]ccc34)cc2)cc1`, the permeability entry in series [2] is recorded as “Permeable”.

Consider `O=C(c1ccccc1)c1ccc(Nc2ncnc3[nH]ccc23)cc1`, for which the permeability result in series [2] is reported as “Permeable”. Also, the outcome in the series with SH-SY5Y was Active.

For `Nc1nc(Nc2ccc(Oc3ccc(C(F)(F)F)cc3)cc2)c2cc[nH]c2n1`, the Selectivity Index in series [1] is 0.13. For the same molecule, in series [2], the permeability entry is on record as “Permeable”. Besides, in the series with SH-SY5Y, the outcome was Active. In addition, half-maximal inhibition on Tau-tubulin kinase 1 [3] (IC50) required 0.38 µM.

For `c1cc(Nc2ncnc3[nH]ccc23)c2c(c1)OCO2`, in series [1], the Selectivity Index came to 0.21. Besides, the permeability result in series [2] is “Permeable”. Besides, the outcome with SH-SY5Y was Active. The IC50 was 1.58 µM against Tau-tubulin kinase 1 [3] and 7.58 µM at Tau-tubulin kinase 2 [4].

As to `Clc1ccc(Cn2cc(COc3ccc(Nc4ncnc5[nH]ccc45)cc3)nn2)cc1`, in series [1], the Selectivity Index came to 0.21. Besides, the permeability result in series [2] is “Impermeable”. Also, the IC50 is 0.61 µM against Tau-tubulin kinase 1 [3] and 2.87 µM at Tau-tubulin kinase 2 [4].

In the case of `c1cc2c(c(Nc3ncnc4[nH]ccc34)c1)CCCC2`, the inhibition on Tau-tubulin kinase 1 [5] came to 23%; against Tau-tubulin kinase 2 [6], 10%.

`Clc1cccc(Nc2ncnc3[nH]ccc23)c1`: the Selectivity Index in series [1] is 1.09. Further, the IC50 against Tau-tubulin kinase 1 [3] was 15.2 µM; against Tau-tubulin kinase 2 [4], 13.9 µM.

`Oc1cccc(Nc2ncnc3[nH]ccc23)c1`: in series [1], the Selectivity Index came out at 0.9. Also, the IC50 is 6.1 µM against Tau-tubulin kinase 1 [3] and 6.7 µM against Tau-tubulin kinase 2 [4].

Take `Clc1cccc(Cn2cc(COc3ccc(Nc4ncnc5[nH]ccc45)cc3)nn2)c1`: the Selectivity Index in series [1] is 0.24. In addition, the permeability entry in series [2] was “Impermeable”. In addition, the IC50 against Tau-tubulin kinase 1 [3] came to 0.48 µM; against Tau-tubulin kinase 2 [4], 2.03 µM.

Turning to `Oc1cccc(Nc2ncnc3[nH]ncc23)c1`, on Tau-tubulin kinase 2 [6], the inhibition turned out to be 13%. For the same molecule, the Selectivity Index in series [1] stood at 0.22. For the same molecule, at Tau-tubulin kinase 1 [3], the midpoint of inhibition, the IC50, lay at 9.15 µM.

Take `Clc1ccc(CCNc2ncnc3[nH]ccc23)cc1`: the 50% inhibitory concentration (IC50) amounted to 18.2 µM on Tau-tubulin kinase 1 [3] and 86 µM at Tau-tubulin kinase 2 [4].

Turning to `Oc1ccc(CCNc2ncnc3[nH]ccc23)cc1`, the Selectivity Index in series [1] came to 0.33. Besides, the values for the IC50 at Tau-tubulin kinase 1 [3] and at Tau-tubulin kinase 2 [4] were 12.8 µM and 37.7 µM, respectively.

In turn, `FC(F)(F)c1cccc(Oc2ccc(Nc3ncnc4[nH]ccc34)cc2)c1` had an inhibition at Tau-tubulin kinase 2 [6] of 1%.

In the case of `Clc1ccc(CNc2ncnc3[nH]ccc23)cc1`, the inhibition against Tau-tubulin kinase 1 [5] stood at 32%; at Tau-tubulin kinase 2 [6], 10%.

Take `c1cncc(Oc2ccc(Nc3ncnc4[nH]ccc34)cc2)c1`: the Selectivity Index in series [1] is 0.12. Also, the permeability result in series [2] was “Impermeable”. Moreover, the IC50 on Tau-tubulin kinase 1 [3] worked out at 0.75 µM; against Tau-tubulin kinase 2 [4], 6.05 µM.

Take `c1cc(Nc2ncnc3[nH]ccc23)cc(N2CCOCC2)c1`: the Selectivity Index in series [1] was found to be 0.82. Besides, the IC50 was found to be 4.7 µM on Tau-tubulin kinase 1 [3] and 5.7 µM against Tau-tubulin kinase 2 [4].

Consider `COc1ccc(Oc2ccc(Nc3ncnc4[nH]ccc34)cc2)cc1`, for which the permeability entry in series [2] was “Permeable”.

With `Clc1ccc(Nc2ncnc3[nH]ccc23)cc1`, in series [1], the Selectivity Index came to 0.15. For the same molecule, the 50% inhibitory concentration (IC50) is 3.2 µM on Tau-tubulin kinase 1 [3] and 20.3 µM against Tau-tubulin kinase 2 [4].

Take `Clc1ccc(Oc2ccc(Nc3ncnc4[nH]ccc34)cc2)cc1Cl`: in series [1], the Selectivity Index was 0.4. Also, in series [2], the permeability result is given as “Permeable”. For the same molecule, the half-maximal inhibitory concentration (IC50) at Tau-tubulin kinase 1 [3] was 2.3 µM; against Tau-tubulin kinase 2 [4], 5.72 µM.

With `O=[N+]([O-])c1ccc(Oc2ccc(Nc3ncnc4[nH]ccc34)cc2)cc1`, in series [2], the permeability result was “Permeable”.

On to `FC(F)(F)Oc1ccc(Nc2ncnc3[nH]ccc23)cc1`, for which the Selectivity Index in series [1] is 0.11. In addition, the permeability entry in series [2] is “Impermeable”. The IC50 on Tau-tubulin kinase 1 [3] turned out to be 1 µM; against Tau-tubulin kinase 2 [4], 8.8 µM.

Turning to `Brc1ccc(Oc2ccc(Nc3ncnc4[nH]ccc34)cc2)cc1`, the permeability result in series [2] is “Permeable”.

As to `CN(C)CCCN1c2ccccc2Sc2ccccc21` [PROMAZINE], in series [2], the permeability result is on record as “Permeable”.

Take `c1ccc(-n2cc(COc3ccc(Nc4ncnc5[nH]ccc45)cc3)nn2)cc1`: the figures for the inhibition on Tau-tubulin kinase 1 [5] and at Tau-tubulin kinase 2 [6] were 29% and 1%, respectively.

`Oc1ccc(Nc2ncnc3[nH]ncc23)cc1`: the inhibition against Tau-tubulin kinase 1 [5] turned out to be 3%; against Tau-tubulin kinase 2 [6] it was 1%.

Take `c1nc(NC2CCCCC2)c2cc[nH]c2n1`: the inhibition stood at 3% at Tau-tubulin kinase 1 [5] and 15% at Tau-tubulin kinase 2 [6].

`Clc1ccc(Nc2ncnc3sccc23)cc1` displayed an inhibition on Tau-tubulin kinase 1 [5] of 20%.

With `Nc1ccc(Sc2ccc(Nc3ncnc4[nH]ccc34)cc2)cc1`, the permeability entry in series [2] is listed as “Permeable”.

With `Cc1cccc(Oc2ccc(Nc3ncnc4[nH]ccc34)cc2)c1`, the permeability result in series [2] was “Permeable”.

`FC(F)(F)c1ccc(Oc2ccc(Nc3ncnc4[nH]ccc34)cc2)cc1` came in with an inhibition against Tau-tubulin kinase 2 [6] of 5%.

With `c1nc(Nc2ccc(N3CCOCC3)cc2)c2cc[nH]c2n1`, the Selectivity Index in series [1] amounted to 0.3. For the same molecule, the IC50 worked out at 4.9 µM against Tau-tubulin kinase 1 [3] and 15.7 µM on Tau-tubulin kinase 2 [4].

In the case of `Nc1nc(Nc2ccc(Oc3cccc(C(F)(F)F)c3)cc2)c2cc[nH]c2n1`, the Selectivity Index in series [1] was 0.33. In series [2], the permeability result is listed as “Permeable”.

As to `Fc1ccc(Oc2ccc(Nc3ncnc4[nH]ccc34)cc2)cc1`, the Selectivity Index in series [1] worked out at 0.25. The permeability entry in series [2] was “Permeable”.
